From publication PMC11695783 (Frontiers in Pharmacology, 2024)
Where “and” joins values, the source holds several entries; their conditions need not be identical. Equal entries are not always repeated.

Assay: Pharmacokinetic studies in mice (intravenous and intramuscular, plasma, HPLC-MS/MS)
Assay type: in vivo, BALB/c mice
Set-up: AUClast / AUCall / AUCINF_obs / AUCINF_pred / AUCINFobs: concentration or dose not given beside the values; Tlast / Clast / AUMClast / AUMCINF_obs / AUMCINF_pred / Lambda_z / HL_Lambda_z / Cl_obs / Cl_pred / Cl_F_obs / Tlag / Cl_F_pred: unit not given here
Details: for plasma concentration, AV: average of mice; for plasma concentration: individual mice 1-8
Protocol: Pharmacokinetic experimental procedures of compound 16C were measured according to previous reports with some modifications ([Wang et al., 2022]). In brief, BALB/c mice were divided into two groups of eight mice each; one group was injected intravenously and the other was injected intramuscularly with compound 16C at a dose of 10 mg/kg. The dose was based on previous studies of novel pleuromutilin derivatives ([Jin et al., 2019]; [Wang et al., 2022]). Meanwhile, the dose of tiamulin approved by the European Union for intramuscular administration is 10–20 mg/kg ([EMA, 1999]). The volume of the injection was 0.1 mL/10 g. The compound 16C formulation was a filtered solution in 5% DMSO, 5% Tween-80, and 90% normal saline. Blood was obtained from eight mice via the ocular venous plexus at 0.083, 0.167, 0.25, 0.334, 0.5, 0.75, 1, 1.5, 2, 3, 4, 6, 8, and 12 h following tail intravenous or thigh Intramuscular injection. A glass capillary with a diameter of 0.3 mm was inserted into the outer canthus of the mouse, and 200 μL blood was collected using a 1.5 mL anticoagulant centrifuge tube. The blood was centrifuged at 3,000 rpm for 10 min to obtain plasma. 100 μL of plasma was aspirated for drug concentration detection, and eight parallel samples from different mice were obtained at each time point.
All pharmacokinetic experimental samples and method validation samples were added with 4 times the volume of acetonitrile and shaken for 1 min, centrifuged at high speed at 13,000× g for 10 min, and the supernatants were taken and filtered to detect the drug concentration. Some samples with high concentrations were diluted to the linear range prior to analysis.
The extracted samples were analyzed using a high-performance liquid chromatography-tandem mass spectrometry (HPLC-MS/MS) system (Agilent, Santa Clara, CA, United States) 1200 HPLC and Applied Biosystems (Waltham, MA, United States) API 4000 mass spectrometer). HPLC-MS/MS analysis using a Zorbax Eclipse XDB-C18 (4.6 × 50 mm, 3.5 μm) column (Agilent). The mobile phase A (acetonitrile) and B (water) were applied as a gradient as follows: 0–3 min: 15%–95% A and maintain from 3 min to 5 min at 95% A. 5–5.1 min: 95%–15% A and maintain from 5.1 to 10 min at 15% A. Flow rate: 500 μL/min; column temperature: 30°C and injection volume: 4 μL. The electrospray ionization (ESI) source of the mass spectrometer was operated in […], with the following ion source parameters: ion spray voltage 4,500 V, collision gas 7 psi, ion source gas 1 55 psi, ion source gas 2 40 psi, curtain gas 20 psi, source temperature 600°C. The precursor ion m/z of Compound 16C was 633.3, and the product ions m/z were 272.0 (quantifier) 286.9 and 313.0. Declustering potentials (DP) were 140, 140, and 144 V, respectively; entrance potential (EP) was 10 V; collision energy (CE) was 55, 46, and 15 V, respectively; and collision cell exit potential (CXP) was 14 V.
[…] Pharmacokinetic parameters include time to maximum concentration (Tmax), maximum concentration (Cmax), the area under the plasma concentration–time curve (AUC0-∞), clearance rate (CL), the apparent volume of distribution (Vd), bioavailability (F), elimination half-life (T1/2kel) and absorption half-life (T1/2ka).

Compound: C=C[C@]1(C)C[C@@H](OC(=O)CSc2ccc(NC(=O)Cc3ccc([N+](=O)[O-])cc3)cc2)[C@]2(C)[C@H](C)CC[C@]3(CCC(=O)[C@H]32)[C@@H](C)[C@@H]1O
- plasma concentration, AV (IM, 0.083h): 409.1 ng/mL
- plasma concentration, AV (IM, 0.17h): 470.8 ng/mL
- plasma concentration, AV (IM, 0.25h): 496 ng/mL
- plasma concentration, AV (IM, 0.33h): 490 ng/mL
- plasma concentration, AV (IM, 0.5h): 449.1 ng/mL
- plasma concentration, AV (IM, 0.75h): 404.2 ng/mL
- plasma concentration, AV (IM, 1h): 281.2 ng/mL
- plasma concentration, AV (IM, 1.5h): 246.4 ng/mL
- plasma concentration (IM, 1.5h): 189 ng/mL and 266 ng/mL and 253 ng/mL and 291 ng/mL and 290 ng/mL and 328 ng/mL and 158 ng/mL and 196 ng/mL
- plasma concentration, AV (IM, 2h): 158.4 ng/mL
- plasma concentration (IM, 2h): 100 ng/mL and 171 ng/mL and 124 ng/mL and 153 ng/mL and 195 ng/mL and 254 ng/mL and 139 ng/mL and 131 ng/mL
- plasma concentration, AV (IM, 3h): 123.2 ng/mL
- plasma concentration (IM, 3h): 92.5 ng/mL and 183 ng/mL and 129 ng/mL and 115 ng/mL and 122 ng/mL and 146 ng/mL and 111 ng/mL and 87 ng/mL
- plasma concentration, AV (IM, 4h): 84.54 ng/mL
- plasma concentration (IM, 4h): 67.6 ng/mL and 99.6 ng/mL and 79.9 ng/mL and 104 ng/mL and 84.5 ng/mL and 117 ng/mL and 51.6 ng/mL and 72.1 ng/mL
- plasma concentration, AV (IM, 6h): 37.03 ng/mL
- plasma concentration (IM, 6h): 27 ng/mL and 51.8 ng/mL and 31.4 ng/mL and 43.1 ng/mL and 35.8 ng/mL and 43.3 ng/mL and 20 ng/mL and 43.8 ng/mL
- plasma concentration, AV (IM, 8h): 18.45 ng/mL
- plasma concentration (IM, 8h): 13.1 ng/mL and 25.3 ng/mL and 16.7 ng/mL and 19.2 ng/mL and 15 ng/mL and 22.7 ng/mL and 13 ng/mL and 22.6 ng/mL
- plasma concentration, AV (IM, 12h): 6.302 ng/mL
- plasma concentration (IM, 12h): 1.85 ng/mL and 6.51 ng/mL and 5.87 ng/mL and 6.37 ng/mL and 4.83 ng/mL and 6.04 ng/mL and 9.7 ng/mL and 9.25 ng/mL
- AUCINF_obs (IM, individual mice): 1087.9 and 805.258 and 1373.07 and 1092.7 and 1076.67 and 1204.87 and 1450.76 and 1023.1
- AUCINF_pred (IM, individual mice): 1087.68 and 805.26 and 1373.07 and 1092.68 and 1076.58 and 1204.84 and 1450.76 and 1021.5
- AUC_%Extrap_obs (IM, individual mice): 3.4748% and 0.4887% and 1.3883% and 1.9994% and 1.9823% and 1.3449% and 1.2619% and 9.501%
- AUC_%Extrap_pred (IM, individual mice): 3.4549% and 0.489% and 1.388% and 1.9971% and 1.9741% and 1.3423% and 1.262% and 9.3589%
- AUCall (IM, individual mice): 1050.1 and 801.322 and 1354.01 and 1070.85 and 1055.33 and 1188.66 and 1432.45 and 925.896
- AUClast (IM, individual mice): 1050.1 and 801.322 and 1354.01 and 1070.85 and 1055.33 and 1188.66 and 1432.45 and 925.896
- AUMCINF_obs (IM, individual mice): 3193.81 and 1900.71 and 3591.01 and 2771.66 and 3099.57 and 2821.33 and 3581.57 and 4169.2
- AUMCINF_pred (IM, individual mice): 3190.21 and 1900.74 and 3590.96 and 2771.26 and 3098.18 and 2820.84 and 3581.6 and 4133.86
- AUMC_%Extrap_obs (IM, individual mice): 19.0405% and 2.9249% and 7.9241% and 12.3927% and 10.57% and 8.8194% and 7.6827% and 51.3426%
- AUMC_%Extrap_pred (IM, individual mice): 18.949% and 2.9266% and 7.9228% and 12.3802% and 10.53% and 8.8035% and 7.6834% and 50.9267%
- AUMClast (IM, individual mice): 2585.7 and 1845.12 and 3306.46 and 2428.17 and 2771.94 and 2572.51 and 3306.41 and 2028.62
- Cl_F_obs (IM, individual mice): 9192.03 and 0.0124 and 0.0073 and 0.0092 and 0.0093 and 0.0083 and 0.0069
- Cl_F_pred (IM, individual mice): 0.0124 and 0.0073 and 0.0092 and 0.0093 and 0.0083 and 0.0069
- Clast (IM, individual mice): 9.25 and 1.85 and 6.51 and 5.87 and 6.37 and 4.83 and 6.04 and 9.7
- Cmax (IM, individual mice): 520 and 469 and 730 and 550 and 410 and 609 and 667 and 531
- HL_Lambda_z (IM, individual mice): 2.8327 and 1.4744 and 2.0296 and 2.5798 and 2.3224 and 2.3255 and 2.1008 and 6.9461
- Tlag (IM, individual mice): 0
- Tlast (IM, individual mice): 12
- Lambda_z (IM, individual mice, non-compartmental analysis): 0.2447 and 0.4701 and 0.3415 and 0.2687 and 0.2985 and 0.2981 and 0.3299 and 0.0998
- MRTINF_obs (IM, individual mice, in h): 2.9358 and 2.3604 and 2.6153 and 2.5365 and 2.8788 and 2.3416 and 2.4688 and 4.0751
- MRTINF_pred (IM, individual mice, in h): 2.9331 and 2.3604 and 2.6153 and 2.5362 and 2.8778 and 2.3413 and 2.4688 and 4.0469
- MRTlast (IM, individual mice, in h): 2.4623 and 2.3026 and 2.442 and 2.2675 and 2.6266 and 2.1642 and 2.3082 and 2.191
- Tmax (IM, individual mice, in h): 0.25 and 0.33 and 0.5 and 0.17 and 0.75
- plasma concentration, AV (IV, 0.083h): 4.976 ng/mL
